Test results published in patent publication US4079130A, “Antidepressant phenylazoimidazoles” (The Dow Chemical Company, priority 1977, dated 1978).
Read-outs that look alike come from different tables or passages of the source.

Experiments:
[1] = system: mice; experiment: Protection from reserpine-induced depression (ptosis) in mice (antidepressant activity); type: in vivo; conditions: for ED50: Mus musculus; for antidepressant activity (in words): under the conditions of the demonstration
Experimental: Separate groups of mice and the same origin and past history (5 mice per group) were administered 2-((2-fluorophenyl)azo)-1H-imidazole (Example 3) in an aqueous carrier. Different groups were administered the compound by intraperitoneal injection at various dosage rates. Thirty minutes after the administration of the test compound, the mice were administered reserpine at a dosage rate of 2.5 milligrams per kilogram by intraperitoneal injection. Separate groups of similar mice were similarly administered 2.5 milligrams of reserpine per kilogram 30 minutes after administration of various dosages of the known antidepressant. The mice were then observed for 45 minutes for symptoms of reserpine-induced depression.
Protection from reserpine-induced depression is indicated by the absence of the characteristic ptosis.
The results were employed to calculate the dose effective to protect 50 percent of the mice (ED50) by classical, statistical procedures.
The procedure of Example 15 was repeated using oral administration of 2-((2-fluorophenyl)azo)-1H-imidazole (Example 3) instead of intraperitoneal injection.
Using the general procedure outlined above, the ED50 's were calculated for some of the other imidazoles herein disclosed.

[2] = Acute toxicity, 50 percent lethal dose (LD50); conditions: mouse, in vivo
[3] = system: mice; experiment: Blocking of isolation-induced aggression in mice (antianxiety activity); type: in vivo; conditions: for ED50: Mus musculus, ip, intraperitoneal, 30 min before pairing, doses 10.0, 21.5, 46.4 mg/kg
Experimental: Antianxiety agents tend to block isolation-induced aggression in mice. Aggression was established in untrained mice by isolating them in individual cages for a period of four weeks. At the end of that period, the mice were paired for three minutes on three test days within one week to establish the absence or presence of aggression. During pairing, one mouse was always in the home cage, and the other was the intruder. […] On test days, each dose of test drug was administered by intraperitoneal injection to five pairs of mice; five additional pairs received only the vehicle and served as controls. Each drug was tested at three doses 10.0 mg, 21.5 mg, and 46.4 mg per kilogram of body weight. Thirty minutes after injection, the intruder was placed in the home cage of his opponent, and aggression was recorded as absent or present. When aggression was present, the intruder was removed immediately so that dominance was not established. Using the same procedure as employed in Examples 15 and 16, ED50 's were established for each compound.

[4] = ip, intraperitoneal, 30 min before reserpine 2.5 mg/kg i.p., observed 45 min, read-out: Intraperitoneal ED50 (dose effective to protect 50 percent of the mice)
[5] = oral, before reserpine 2.5 mg/kg i.p., read-out: Oral ED50
[6] = acute, Table II, route not given, read-out: Acute Toxicity LD50

SMILES	ED50 [1, 4] [mg/kg]	ED50 [1, 5] [mg/kg]	ED50 [3] [mg/kg]	LD50 ([2]; read-out: Acute Toxicity LD50) [mg/kg]	other results
Clc1ccccc1N=Nc1ncc[nH]1 [Example 1, 2-((2-chlorophenyl)azo)-1H-imidazole]	20	23	–	–	LD50 [2, 6]: > 562 mg/kg
Cl.Clc1ccccc1N=Nc1ncc[nH]1 [Example 2, 2-((2-chlorophenyl)azo)-1H-imidazole hydrochloride]	17	32	13.3	–	LD50 [2, 6]: 316 mg/kg
Fc1ccccc1N=Nc1ncc[nH]1 [Example 3, 2-((2-fluorophenyl)azo)-1H-imidazole]	–	–	23.7	–	ED50 ([1]; ip, read-out: Intraperitoneal ED50 (dose effective to protect 50 percent of the mice)): 11 mg/kg; ED50 ([1]; po, read-out: Oral ED50): 11 mg/kg; selectivity ratio ([2]; ip, intraperitoneal LD50 / intraperitoneal ED50 (reserpine test), read-out: therapeutic index LD50/ED50): 13.4; LD50 ([2]; ip, intraperitoneal, acute, read-out: intraperitoneal acute 50 percent lethal dose (LD50)): 147 mg/kg
c1ccc(N=Nc2ncc[nH]2)cc1 [Example 4]	20	24	27.1	316	–
Cc1ccccc1N=Nc1ncc[nH]1 [Example 5]	42	43	–	–	antianxiety activity (in words) ([3]; isolation-induced aggression in mice): very weak activity
Brc1ccccc1N=Nc1ncc[nH]1 [Example 6]	23	79	28.7	> 562	–
Ic1ccccc1N=Nc1ncc[nH]1 [Example 7]	–	75	31.6	> 562	–
O=[N+]([O-])c1ccccc1N=Nc1ncc[nH]1 [Example 8, 2-((2-nitrophenyl)azo)-1H-imidazole]	–	–	27.1	–	antidepressant activity (in words) [1]: active as an antidepressant
N#Cc1ccccc1N=Nc1ncc[nH]1 [Example 9]	20	19	12.6	147	–
Cc1cccc(N=Nc2ncc[nH]2)c1 [Example 10, 2-((3-methylphenyl)azo)-1H-imidazole]	27	–	5.84	–	LD50 [2, 6]: 316 mg/kg
Clc1cccc(N=Nc2ncc[nH]2)c1 [Example 11]	24	32	24.5	178	–
Cc1ccc(N=Nc2ncc[nH]2)cc1 [Example 12]	–	–	28.7	–	antidepressant activity (in words) [1]: essentially inactive as antidepressant agents
Cc1ccc(N=Nc2ncc[nH]2)c(Cl)c1 [Example 13]	–	–	25.5	–	antidepressant activity (in words) [1]: essentially inactive as antidepressant agents
Clc1ccc(N=Nc2ncc[nH]2)cc1 [Example 14, 2-((4-chlorophenyl)azo)-1H-imidazole]	–	–	4.3	–	antidepressant activity (in words) [1]: essentially inactive as antidepressant agents
